This passage reports IC50 and LD50 results from ChEMBL document CHEMBL1126488, “A new designed tumor selective daunomycin derivative” (Bioorg Med Chem Lett, 1993).

For data set [1], the system named is MCF7. In words: Cytotoxicity of compound was tested against MCF-7 cell line (breast carcinoma) after incubation for 72 hour. The format is functional, cell-based. As to conditions: Homo sapiens, MCF7, 72 h.
Data set [2] concerns HL-60. In words: Cytotoxicity of compound was tested against HL-60 cell line (promyelocytic leukemia) after incubation for 72 hour. As to conditions: Homo sapiens, HL-60, 72 h. The format is functional, cell-based.
Data set [3] has as its system CHO. In words: Cytotoxicity of compound was tested against CHO cell line (Chinese hamster ovary) after incubation for 24 hour. The format is functional, cell-based. To be noted: Cricetulus griseus.
The subject of data set [4] is NHDF. Put plainly: Cytotoxicity of compound was tested against NHDF cell line (norm human dermal fibroblast) after incubation for 24 hour. The format is functional, cell-based.
Data set [5] has as its system HL-60. Put plainly: Cytotoxicity of compound was tested against HL-60 cell line (promyelocytic leukemia) after incubation for 24 hour. The format is functional, cell-based. To be noted: Homo sapiens, HL-60, 24 h.
Data set [6] concerns P388. Put plainly: Cytotoxicity of compound was tested against P-388 cell line (mouse leukemia) after incubation for 24 hour. The format is functional, cell-based. To be noted: P388, 24 h.
For data set [7], the system named is HMEC. Put plainly: Cytotoxicity of compound was tested against HMEC cell line (human mamm epithelial cells) after incubation for 72 hour. The format is functional, cell-based.
For data set [8], the system named is NHDF. In words: Cytotoxicity of compound was tested against NHDF cell line (norm human dermal fibroblast) after incubation for 72 hour. The format is functional, cell-based.
Data set [9] has as its system HT-29. In words: Cytotoxicity of compound was tested against HT-29 cell line (colon carcinoma) after incubation for 24 hour. The format is functional, cell-based. To be noted: Homo sapiens, HT-29, 24 h.
In data set [10] the test system is CAPAN-1. In words: Cytotoxicity of compound was tested against Capan-1 cell line (pancreatic carcinoma) after incubation for 24 hour. The format is functional, cell-based. To be noted: Homo sapiens, CAPAN-1, 24 h.
Data set [11] concerns SK-MEL-28. In words: Cytotoxicity of compound was tested against SK-Mel-28 cell line (melanoma) after incubation for 24 hour. The format is functional, cell-based. As to conditions: Homo sapiens, SK-MEL-28, 24 h.
Data set [12] has as its system OVCAR-3. Put plainly: Cytotoxicity of compound was tested against Ovcar-3 cell line (ovarian carcinoma) after incubation for 72 hour. The format is functional, cell-based. As to conditions: Homo sapiens, OVCAR-3, 72 h.
A short description of data set [13]: Lethal dose of compound required when administered BALB C mice. To be noted: mouse, in vivo. The format is toxicity.
Data set [14] concerns HMEC. Put plainly: Cytotoxicity of compound was tested against HMEC cell line (human mamm epithelial cells) after incubation for 24 hour. The format is functional, cell-based.
The test system of data set [15] is MCF7. Put plainly: Cytotoxicity of compound was tested against MCF-7 cell line (breast carcinoma) after incubation for 24 hour. To be noted: Homo sapiens, MCF7, 24 h. The format is functional, cell-based.
The test system of data set [16] is SK-MEL-28. Put plainly: Cytotoxicity of compound was tested against SK-Mel-28 cell line (melanoma) after incubation for 72 hour. The format is functional, cell-based. As to conditions: Homo sapiens, SK-MEL-28, 72 h.
In data set [17] the test system is CHO. Put plainly: Cytotoxicity of compound was tested against CHO cell line (Chinese hamster ovary) after incubation for 72 hour. The format is functional, cell-based. To be noted: Cricetulus griseus.
For a further data set, the system named is MOLT-4. In words: Cytotoxicity of compound was tested against Molt-4 cell line (T-cell leukemia) after incubation for 24 hour. The format is functional, cell-based. As to conditions: Homo sapiens, MOLT-4, 24 h.
Data set [18] deals with P388. In words: Cytotoxicity of compound was tested against P-388 cell line (mouse leukemia) after incubation for 72 hour. To be noted: P388, 72 h. The format is functional, cell-based.
Data set [19] concerns HT-29. In words: Cytotoxicity of compound was tested against HT-29 cell line (colon carcinoma) after incubation for 72 hour. The format is functional, cell-based. As to conditions: Homo sapiens, HT-29, 72 h.
Data set [20] deals with CAPAN-1. In words: Cytotoxicity of compound was tested against […] cell line (pancreatic carcinoma) after incubation for 72 hour. The format is functional, cell-based. To be noted: Homo sapiens, CAPAN-1, 72 h.
The test system of data set [21] is OVCAR-3. Put plainly: Cytotoxicity of compound was tested against Ovcar-3 cell line (ovarian carcinoma) after incubation for 24 hour. To be noted: Homo sapiens, OVCAR-3, 24 h. The format is functional, cell-based.
The subject of the next data set is UCLA P-3. Put plainly: Cytotoxicity of compound was tested against UCLA P-3 cell line (lung carcinoma) after incubation for 24 hour. The format is functional, cell-based. To be noted: Homo sapiens, UCLA P-3, 24 h.

What is called IC50 is the midpoint of a concentration-inhibition curve. Low values mean inhibition by little substance, high ones a need for much substance. A word on the LD50: it is the dose expected to kill half of the subjects tested. For the molecule `COc1cccc2c1C(=O)c1c(O)c3c(c(O)c1C2=O)C[C@@](O)(C(C)=O)C[C@@H]3O[C@H]1C[C@H](N)[C@H](O)[C@H](C)O1.Cl` [DAUNORUBICIN HYDROCHLORIDE], the IC50 was 13.5 µM with MCF7 [1]; 0.098 µM with HL-60 [2]; 0.39 µM in the data set on CHO [3]; 0.19 µM with NHDF [4]; below 0.098 µM in the data set with HL-60 [5]; 0.39 µM in the data set on P388 [6]. The IC50 with HMEC [7] was below 0.098 µM; in the data set with NHDF [8] it was 0.404 µM; with HT-29 [9] it was 0.78 µM; with CAPAN-1 [10] it was 0.39 µM; with SK-MEL-28 [11] it was 1.6 µM; with OVCAR-3 [12], 0.287 µM. Moreover, the IC50 was 0.39 µM in the data set on HMEC [14]; 0.78 µM with MCF7 [15]; 1.41 µM with SK-MEL-28 [16]; 0.294 µM with CHO [17]; 0.001 µM in the data set with MOLT-4; below 0.098 µM in the data set on P388 [18]. Besides, the IC50 came to 0.357 µM with HT-29 [19], 3.1 µM in the data set on CAPAN-1 [20], 0.39 µM in the data set with OVCAR-3 [21] and 0.73 µM in the data set on UCLA P-3. The same molecule came in with a 50% lethal dose (LD50) in data set [13] of 15 mg/kg.
